In patent US8895599B2, “Lipoprotein lipase-activating compositions comprising benzene derivates” (Otsuka Pharmaceutical Factory, Inc., priority 2008, dated 2014):

System: LPL
Assay: Test for LPL activity-increasing effect in normal rats (skeletal muscle LPL activity)
Format: in vivo
Details: every day for 1 week, SD rats, soleus muscle, 4 h after administration
Protocol: Test for LPL Activity-Increasing Effect in Normal Rats
6-week-old SD rats (purchased from Charles River Japan) were used as subjects. The rats were divided into groups according to body weight at the age of 5 weeks. The rats in each test group were orally administered with a 5% gum arabic suspension in an amount of 5 ml/kg of body weight, the suspension containing the test compound of the invention in such an amount that the dose of the compound of the invention became 30 mg/kg of body weight in one group and 100 mg/kg of body weight in another group. The rats in a control group were orally administered with a 5% gum arabic suspension (not containing the test compound of the invention) in an amount of 5 ml/kg of body weight. Each sample suspension was orally administered every day at a specific time of day for 1 week starting when the rats reached the age of 6 weeks.
Four hours after the administration of the sample suspension, skeletal muscle tissues of the rats were collected, then freeze-clamped and stored under liquid nitrogen. LPL activity in the skeletal muscle tissues was measured by the following method.
The soleus muscle was homogenized in a chilled solution of 0.05 mol/L NH4OH—NH4Cl buffer (pH 8.5) containing 0.5 U/mL heparin at 1 mL/100 mg of tissue wet weight. After standing on ice for 60 min with vigorous mixing at intervals of 15 min, the homogenate was centrifuged at 3000 rpm and 4° C. for 10 min and the supernatant was separated.
The substrate solution was prepared by mixing 2 μCi of glycerol tri[1-^14C]oleate, 0.133 g of unlabeled triolein, 0.9 mL of 1% Triton X-100, and 0.9 mL of 4% bovine serum albumin. in 0.2 mol/L Tris-HCl buffer (pH 8.6) and 10.2 mL of 0.2 mol/L Tris-HCl buffer (pH 8.6). The mixture was emulsified by sonication on ice for 3 min.
In a glass test tube, 0.1 mL of the tissue extract, 0.05 mL of heat-inactivated rat serum and 0.15 mL of 4% bovine serum albumin in 0.2 mol/L Tris-HCl buffer (pH 7.4) were mixed. Enzyme reaction was started by adding 0.2 mL of the substrate solution and was carried out for 30 min. at 37° C.
The reaction was stopped by addition of 2 mL of 1.5 mol/L H2SO4/2-propanol (1:40, v/v), and 1 mL of distilled water and 3 mL of hexane were added into the test tube. After vigorously shaking for 10 min. at room temperature, the test tube was centrifuged for 10 min. at 3000 rpm.
The upper layer (3.5 mL) was collected in a new test tube and mixed with 1 mL of 0.1 mol/L KOH.
The test tube was vigorously shaken for 10 min. at room temperature and then centrifuged for 10 min. at 3000 rpm.
After removing the upper layer, 1 mL of the lower layer (water phase) was transferred into a vial for counting, neutralized with 50 μL of 1.3 mol/L HCl and mixed with 4 mL of scintillator. The radioactivity was measured using a liquid scintillation counter.
The LPL activity increase (%) was calculated from the measured values of LPL activity in the control group and test groups according to the following formula: LPL activity increase (%)=(Test group average value)/(Control group average value)×100−100

COc1cc(-c2cn3ccccc3n2)ccc1OCc1ccc(Cl)cc1 [Example 10]
Increase of skeletal muscle LPL activity compared to control (%) (30 mg/kg oral): 22%
Increase of skeletal muscle LPL activity compared to control (%) (100 mg/kg oral): 55%
